Test results: ChEMBL document CHEMBL4602617, “Discovery and optimization of heteroaryl piperazines as potent and selective PI3Kδ inhibitors” (Bioorg Med Chem Lett, 2020)

How the values were obtained:
[1] = target: Nociceptin receptor (Homo sapiens) (UniProt P41146); test: Displacement of [3H]nociceptin from full length human recombinant ORL1 receptor expressed in HEK293 cells at 10 uM measured after 60 mins by radiometric scintillation analysis relative to control; format: cell-based
[2] = target: Neuropeptide Y receptor type 1 (Homo sapiens) (UniProt P25929); test: Displacement of [[125I]peptide YY from full length human SK-N-MC cell-derived Y1 neuropeptide receptor at 10 uM measured after 60 mins by radiometric scintillation analysis relative to control; format: cell-based
MAO-A = MAO-A (Homo sapiens, UniProt P21397); test: Inhibition of recombinant full-length human MAO-A expressed in insect cells at 10 uM using kynuramine as substrate after 60 mins by spectrophotometric analysis relative to control; conditions: probe kynuramine
[3] = target: 5-hydroxytryptamine receptor 6 (Homo sapiens) (UniProt P50406); test: Displacement of [3H] lysergic acid diethylamide from full length human recombinant 5HT6 receptor expressed in HeLa/E6-7 cells at 10 uM measured after 120 mins by radiometric scintillation analysis relative to control; format: cell-based
Chain of 5-hydroxytryptamine receptor 6 (Homo sapiens) (P50406 whole entry): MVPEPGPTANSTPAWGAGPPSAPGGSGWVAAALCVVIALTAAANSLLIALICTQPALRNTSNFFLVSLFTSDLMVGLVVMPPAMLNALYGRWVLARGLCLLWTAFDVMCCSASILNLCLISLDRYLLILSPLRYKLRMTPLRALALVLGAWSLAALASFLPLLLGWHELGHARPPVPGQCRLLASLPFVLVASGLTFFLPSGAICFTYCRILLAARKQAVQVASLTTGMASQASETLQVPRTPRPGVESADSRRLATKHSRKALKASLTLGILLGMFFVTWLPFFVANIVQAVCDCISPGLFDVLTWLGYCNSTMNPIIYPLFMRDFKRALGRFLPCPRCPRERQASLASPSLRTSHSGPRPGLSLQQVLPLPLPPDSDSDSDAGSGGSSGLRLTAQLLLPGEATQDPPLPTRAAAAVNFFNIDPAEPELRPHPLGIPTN

Cytochrome P450 3A4 = Cytochrome P450 3A4 (Homo sapiens, UniProt P08684); test: Inhibition of CYP3A4 (unknown origin); format: ADME
Chain of Cytochrome P450 3A4 (P08684 whole entry, the tested form may be a part): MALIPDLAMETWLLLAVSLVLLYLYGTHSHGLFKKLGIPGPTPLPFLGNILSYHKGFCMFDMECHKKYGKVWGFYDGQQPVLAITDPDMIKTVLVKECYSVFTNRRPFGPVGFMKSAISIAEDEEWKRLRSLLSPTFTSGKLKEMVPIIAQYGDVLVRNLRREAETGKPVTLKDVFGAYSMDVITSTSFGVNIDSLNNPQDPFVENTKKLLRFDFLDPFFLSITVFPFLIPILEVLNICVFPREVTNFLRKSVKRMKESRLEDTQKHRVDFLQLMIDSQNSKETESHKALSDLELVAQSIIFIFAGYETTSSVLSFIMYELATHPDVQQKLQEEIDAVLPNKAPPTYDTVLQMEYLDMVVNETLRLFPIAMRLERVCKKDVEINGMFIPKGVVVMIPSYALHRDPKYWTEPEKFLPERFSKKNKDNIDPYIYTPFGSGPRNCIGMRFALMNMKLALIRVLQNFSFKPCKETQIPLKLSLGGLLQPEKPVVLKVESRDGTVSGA

[4] = target: Receptor tyrosine-protein kinase erbB-4 (Homo sapiens, UniProt Q15303); test: Inhibition of recombinant human N-terminal GST-tagged ERBB4 catalytic domain (708 to 993 residues) expressed in baculovirus expression system using tyrosine-1 peptide as substrate incubated for 60 mins in presence of ATP by Z'-LYTE assay
[5] = target: Epidermal growth factor receptor (Homo sapiens, UniProt P00533, L861Q); test: Inhibition of human recombinant GST-tagged EGFR L861Q mutant cytoplasmic domain expressed in baculovirus expression system using tyrosine 4 peptide as substrate after 60 mins in presence of ATP FRET based Z'-LYTE assay
[6] = Volume of drug distribution in rat at 0.5 mg/kg, iv or 1 mg/kg, po; format: ADME, organism-based; conditions: in vivo
[7] = tested on: Atrial natriuretic peptide receptor 1 (Cavia porcellus); test: Inhibition of guniea pig ANF at 10 uM relative to control
[8] = target: Muscarinic acetylcholine receptor M5 (Homo sapiens) (UniProt P08912); test: Displacement of [3H]N-Methylscopolamine from full length human recombinant Muscarinic M5 receptor expressed in CHOK1 cells at 10 uM measured after 120 mins by radiometric scintillation analysis relative to control; format: cell-based; conditions: CHO-K1
[9] = target: Serine/threonine-protein kinase SIK2 (Homo sapiens, UniProt Q9H0K1); test: Inhibition of recombinant full length GST-tagged human SNF1LK2 expressed in baculovirus expression system using Ser/Thr 25 as substrate in presence of ATP after 1 hr by Z'LYTE assay
Chain of Serine/threonine-protein kinase SIK2 (Q9H0K1 whole entry, the tested form may be a part): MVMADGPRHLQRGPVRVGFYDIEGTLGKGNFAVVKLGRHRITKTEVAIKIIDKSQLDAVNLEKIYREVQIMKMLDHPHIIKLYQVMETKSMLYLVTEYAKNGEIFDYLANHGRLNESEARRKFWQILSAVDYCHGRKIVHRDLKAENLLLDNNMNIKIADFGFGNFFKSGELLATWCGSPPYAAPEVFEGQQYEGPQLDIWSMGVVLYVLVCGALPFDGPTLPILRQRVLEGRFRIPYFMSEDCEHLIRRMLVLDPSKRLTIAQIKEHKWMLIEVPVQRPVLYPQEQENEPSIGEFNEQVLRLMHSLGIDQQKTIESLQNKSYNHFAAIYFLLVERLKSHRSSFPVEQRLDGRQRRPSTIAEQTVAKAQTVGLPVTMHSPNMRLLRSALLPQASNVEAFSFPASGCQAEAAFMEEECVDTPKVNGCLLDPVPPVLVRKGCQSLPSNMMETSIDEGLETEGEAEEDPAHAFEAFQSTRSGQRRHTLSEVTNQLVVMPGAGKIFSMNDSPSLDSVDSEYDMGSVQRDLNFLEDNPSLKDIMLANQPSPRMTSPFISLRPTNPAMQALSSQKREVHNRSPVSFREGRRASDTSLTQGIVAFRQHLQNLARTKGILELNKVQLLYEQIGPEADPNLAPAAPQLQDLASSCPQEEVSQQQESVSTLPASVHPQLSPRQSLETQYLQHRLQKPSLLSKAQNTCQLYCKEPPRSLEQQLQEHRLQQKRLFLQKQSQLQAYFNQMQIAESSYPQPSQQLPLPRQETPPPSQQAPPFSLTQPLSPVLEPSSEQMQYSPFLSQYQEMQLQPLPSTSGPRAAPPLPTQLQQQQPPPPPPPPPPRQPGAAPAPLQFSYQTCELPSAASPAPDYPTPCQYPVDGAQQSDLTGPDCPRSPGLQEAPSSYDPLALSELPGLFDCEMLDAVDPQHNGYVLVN

[10] = target: PAS domain-containing serine/threonine-protein kinase (Homo sapiens, UniProt Q96RG2); test: Inhibition of recombinant human GST-tagged PASK catalytic domain expressed in baculovirus expression system using serine/threonine-7 peptide as substrate incubated for 60 mins in presence of ATP by Z'-LYTE assay
[11] = target: Histamine H3 receptor (Homo sapiens) (UniProt Q9Y5N1); test: Displacement of [3H]N-alpha-Methylhistamine from full length human recombinant histamine H3 receptor expressed in CHO-K1 cells at 10 uM measured after 120 mins by radiometric scintillation analysis relative to control; format: cell-based
Chain of Histamine H3 receptor (Homo sapiens) (Q9Y5N1 whole entry): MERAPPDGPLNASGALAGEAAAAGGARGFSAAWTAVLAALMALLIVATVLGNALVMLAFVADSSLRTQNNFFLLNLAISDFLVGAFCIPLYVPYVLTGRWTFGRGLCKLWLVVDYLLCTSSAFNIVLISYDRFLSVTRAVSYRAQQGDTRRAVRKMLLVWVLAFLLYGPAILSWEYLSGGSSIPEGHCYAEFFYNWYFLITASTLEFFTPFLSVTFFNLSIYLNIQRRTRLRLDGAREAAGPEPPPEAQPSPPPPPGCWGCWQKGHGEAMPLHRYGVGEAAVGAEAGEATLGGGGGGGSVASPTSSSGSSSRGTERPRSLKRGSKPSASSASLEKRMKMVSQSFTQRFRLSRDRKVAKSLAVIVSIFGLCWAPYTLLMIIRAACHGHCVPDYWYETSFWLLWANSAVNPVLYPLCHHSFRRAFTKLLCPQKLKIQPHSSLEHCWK

[12] = target: Muscarinic acetylcholine receptor M4 (Homo sapiens) (UniProt P08173); test: Displacement of [3H]N-Methylscopolamine from full length human recombinant Muscarinic M4 receptor expressed in CHOK1 cells at 10 uM measured after 120 mins by radiometric scintillation analysis relative to control; format: cell-based; conditions: CHO-K1
[13] = target: Serine/threonine-protein kinase mTOR (Homo sapiens, UniProt P42345); test: Inhibition of recombinant human GST-tagged mTOR catalytic domain (1360 to 2549 residues) expressed in baculovirus expression system using serine/threonine-11 peptide as substrate incubated for 60 mins in presence of ATP by Z'-LYTE assay
Homo sapiens = species on record: Homo sapiens; test: Selectivity index, ratio IC50 for inhibition of recombinant human full-length N-terminal His6-tagged p110alpha/untagged full-length p85alpha expressed in baculovirus infected Sf21 cells to ratio IC50 for inhibition of recombinant human full-length N-terminal GST-tagged p110delta/untagged full-length p85alpha expressed in baculovirus infected Sf21 cells
[14] = target: Mast/stem cell growth factor receptor Kit (Homo sapiens, UniProt P10721); test: Inhibition of human recombinant His-tagged KIT cytoplasmic domain expressed in baculovirus expression system using Tyr6 peptide as measured after 1 hr in presence of ATP by Z'-LYTE assay
[15] = target: Fibroblast growth factor receptor 3 (Homo sapiens, UniProt P22607, K650E); test: Inhibition of recombinant N-terminal His-tagged human FGFR3 K650E mutant (398 to 806 residues) cytoplasmic domain expressed in baculovirus expression system using Tyr 04 peptide as substrate after 1 hr in presence of ATP by Z'-LYTE assay
[16] = target: Cathepsin G (Homo sapiens) (UniProt P08311); test: Inhibition of endogenous human cathepsin G at 10 uM using Suc-Ala-Ala-Pro-Phe-AMC as substrate after 30 mins by spectrophotometric analysis relative to control
Chain of Cathepsin G (Homo sapiens) (P08311 whole entry): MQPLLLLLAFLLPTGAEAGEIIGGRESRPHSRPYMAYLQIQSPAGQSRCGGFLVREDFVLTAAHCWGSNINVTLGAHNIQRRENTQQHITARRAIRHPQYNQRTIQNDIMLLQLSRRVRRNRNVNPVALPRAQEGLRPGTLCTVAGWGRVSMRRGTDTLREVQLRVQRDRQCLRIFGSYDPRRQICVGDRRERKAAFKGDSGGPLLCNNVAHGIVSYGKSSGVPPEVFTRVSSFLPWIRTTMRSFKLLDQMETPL

[17] = target: Cyclin-dependent kinase 5/CDK5 activator 1 (Homo sapiens, UniProt Q00535); test: Inhibition of recombinant full length human GST/His-tagged CDK5/p25 expressed in baculovirus expression system using serine/threonine-12 peptide as substrate incubated for 60 mins in presence of ATP by Z'-LYTE assay
Chain of Cyclin-dependent kinase 5/CDK5 activator 1 (Q00535 whole entry): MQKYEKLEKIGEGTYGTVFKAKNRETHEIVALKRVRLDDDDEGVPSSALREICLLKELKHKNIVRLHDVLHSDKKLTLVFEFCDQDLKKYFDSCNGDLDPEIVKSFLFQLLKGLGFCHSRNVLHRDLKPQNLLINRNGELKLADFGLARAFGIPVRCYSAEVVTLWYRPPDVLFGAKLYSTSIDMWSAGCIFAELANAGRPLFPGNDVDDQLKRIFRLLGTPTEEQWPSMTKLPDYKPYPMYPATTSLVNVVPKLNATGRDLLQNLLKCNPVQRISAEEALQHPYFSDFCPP
Chain of Cyclin-dependent kinase 5/CDK5 activator 1 (Q15078 whole entry, further chain): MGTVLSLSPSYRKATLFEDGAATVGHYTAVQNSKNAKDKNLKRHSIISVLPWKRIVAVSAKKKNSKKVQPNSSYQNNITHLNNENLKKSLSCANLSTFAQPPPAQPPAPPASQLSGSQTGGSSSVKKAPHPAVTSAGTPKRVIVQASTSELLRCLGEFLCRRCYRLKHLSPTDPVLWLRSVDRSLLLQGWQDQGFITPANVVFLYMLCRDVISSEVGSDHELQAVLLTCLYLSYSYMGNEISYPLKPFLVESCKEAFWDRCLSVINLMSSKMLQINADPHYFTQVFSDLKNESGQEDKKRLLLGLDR

[18] = target: Serine/threonine-protein kinase D1 (Homo sapiens, UniProt Q15139); test: Inhibition of recombinant full length human GST-tagged PKCmu expressed in baculovirus expression system using serine/threonine-17 peptide as substrate incubated for 60 mins in presence of ATP by Z'-LYTE assay
[19] = target: Serine/threonine-protein kinase N1 (Homo sapiens, UniProt Q16512); test: Inhibition of recombinant full length GST-tagged human PKN1 expressed in baculovirus expression system using Ser/Thr 07 as substrate in presence of ATP after 1 hr by Z'-LYTE assay
[20] = Protein binding in dog plasma at 0.5 mg/kg, iv or 1 mg/kg, po; format: ADME, organism-based, Canis lupus familiaris; conditions: read-out: PPB (converted)
[21] = target: Progesterone receptor (Homo sapiens) (UniProt P06401); test: Inhibition of human progesterone B receptor at 10 uM relative to control
[22] = target: PI3-kinase p110-delta/p85-alpha (Homo sapiens, UniProt O00329); test: Inhibition of recombinant human full-length N-terminal GST-tagged p110delta/untagged full-length p85alpha expressed in baculovirus infected Sf21 cells using PIP2 as substrate preincubated for 15 mins followed by substrate addition and measured after 1 hr by HTRF assay
Chain of PI3-kinase p110-delta/p85-alpha (P27986 whole entry): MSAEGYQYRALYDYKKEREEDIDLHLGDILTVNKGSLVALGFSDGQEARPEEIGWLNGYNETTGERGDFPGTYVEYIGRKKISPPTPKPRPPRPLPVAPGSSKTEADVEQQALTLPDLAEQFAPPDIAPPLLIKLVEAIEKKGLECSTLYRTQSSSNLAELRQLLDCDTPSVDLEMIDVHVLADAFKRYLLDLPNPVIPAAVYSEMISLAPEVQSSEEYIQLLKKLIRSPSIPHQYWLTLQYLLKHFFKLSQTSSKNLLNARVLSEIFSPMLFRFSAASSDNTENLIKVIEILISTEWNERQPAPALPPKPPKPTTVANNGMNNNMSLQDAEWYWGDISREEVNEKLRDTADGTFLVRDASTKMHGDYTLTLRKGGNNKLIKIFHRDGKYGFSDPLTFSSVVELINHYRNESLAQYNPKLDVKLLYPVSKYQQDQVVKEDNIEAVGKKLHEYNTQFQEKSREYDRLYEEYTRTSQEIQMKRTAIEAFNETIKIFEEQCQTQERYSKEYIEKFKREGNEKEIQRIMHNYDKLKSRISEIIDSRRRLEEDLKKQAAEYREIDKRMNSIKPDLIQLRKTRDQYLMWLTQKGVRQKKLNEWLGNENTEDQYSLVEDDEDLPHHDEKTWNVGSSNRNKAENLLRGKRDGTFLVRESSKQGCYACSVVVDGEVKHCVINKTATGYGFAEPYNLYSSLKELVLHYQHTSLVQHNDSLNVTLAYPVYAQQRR
Chain of PI3-kinase p110-delta/p85-alpha (O00329 whole entry): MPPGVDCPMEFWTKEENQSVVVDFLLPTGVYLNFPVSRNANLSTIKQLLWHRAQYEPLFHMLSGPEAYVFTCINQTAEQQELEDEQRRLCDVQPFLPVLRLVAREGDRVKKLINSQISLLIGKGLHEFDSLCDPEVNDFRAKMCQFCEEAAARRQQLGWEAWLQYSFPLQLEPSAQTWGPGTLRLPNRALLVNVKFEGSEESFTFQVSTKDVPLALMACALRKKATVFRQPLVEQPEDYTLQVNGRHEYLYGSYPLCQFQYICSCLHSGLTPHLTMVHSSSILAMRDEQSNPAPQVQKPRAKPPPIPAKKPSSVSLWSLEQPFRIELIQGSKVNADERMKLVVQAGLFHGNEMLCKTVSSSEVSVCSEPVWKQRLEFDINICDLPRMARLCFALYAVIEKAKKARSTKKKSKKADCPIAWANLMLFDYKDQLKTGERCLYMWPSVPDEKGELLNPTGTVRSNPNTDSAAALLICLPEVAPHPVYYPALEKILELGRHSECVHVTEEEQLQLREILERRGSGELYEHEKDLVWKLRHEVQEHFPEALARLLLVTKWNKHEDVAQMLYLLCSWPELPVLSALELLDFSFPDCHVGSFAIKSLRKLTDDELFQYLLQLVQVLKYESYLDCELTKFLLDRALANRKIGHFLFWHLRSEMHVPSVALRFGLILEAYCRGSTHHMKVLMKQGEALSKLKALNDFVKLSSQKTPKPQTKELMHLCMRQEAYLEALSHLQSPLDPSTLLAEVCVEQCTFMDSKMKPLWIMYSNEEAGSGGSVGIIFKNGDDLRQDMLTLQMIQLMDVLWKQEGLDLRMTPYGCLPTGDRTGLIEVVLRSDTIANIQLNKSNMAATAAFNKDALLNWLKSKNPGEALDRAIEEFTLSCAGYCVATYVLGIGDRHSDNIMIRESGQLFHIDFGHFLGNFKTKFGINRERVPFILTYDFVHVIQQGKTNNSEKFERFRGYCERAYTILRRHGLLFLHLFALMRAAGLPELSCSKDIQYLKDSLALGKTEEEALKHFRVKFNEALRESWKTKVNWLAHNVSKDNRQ

[23] = target: Calcium/calmodulin-dependent protein kinase type II subunit delta (Homo sapiens, UniProt Q13557); test: Inhibition of recombinant full length human His-tagged CAMK2D expressed in baculovirus expression system using serine/threonine-04 peptide as substrate incubated for 60 mins in presence of ATP by Z'-LYTE assay
[24] = target: Megakaryocyte-associated tyrosine-protein kinase (Homo sapiens, UniProt P42679); test: Inhibition of recombinant full length human His-tagged MATK expressed in Escherichia coli using tyr-01 peptide as substrate incubated for 60 mins in presence of ATP by Z'-LYTE assay

In the case of `C[C@@H]1C[C@H]1C(=O)N1CCN(c2cnc(C#N)c(-c3cnn(C)c3)n2)C[C@H]1C`, the inhibition [1] is reported as -1%, the inhibition [2] is reported as 10% and the inhibition at 1 h, 10 µM (MAO-A) is reported as 11%. It also gave an inhibition [3] of 7%, an IC50 (Cytochrome P450 3A4) greater than 50 µM and an IC50 [4] greater than 100 µM. The IC50 [5] was greater than 100 µM, the Vd [6] was 1.1 L/kg and the inhibition [7] was 8%. It also gave an inhibition [8] of 1%, an IC50 [9] greater than 100 µM and an IC50 [10] greater than 100 µM. It also gave an inhibition [11] of -1%, an inhibition [12] of 3% and an IC50 [13] greater than 100 µM. For the same molecule, the Ratio IC50 (Homo sapiens) was greater than 373, the IC50 [14] was greater than 100 µM and the IC50 [15] was greater than 100 µM. It also gave an inhibition [16] of 6%, an IC50 [17] greater than 100 µM and an IC50 [18] greater than 100 µM. It also gave an IC50 [19] greater than 100 µM, a fraction unbound [20] of 0.213 and an inhibition [21] of 0%. For the same molecule, the IC50 [22] was 0.009 µM, the IC50 [23] was greater than 100 µM and the IC50 [24] was greater than 100 µM.
